Results as given in PMC6237161, “Synthesis, preliminarily biological evaluation and molecular docking study of new Olaparib analogues as multifunctional PARP-1 and cholinesterase inhibitors” (Journal of Enzyme Inhibition and Medicinal Chemistry, 2018).
Like-named read-outs stand apart in the source and are kept apart here.

Key:
PARP-1 enzyme = biological target: T1, PARP-1 enzyme (Homo sapiens, UniProt P09874); assay: biochemical; conditions: mean ± SD, n=3; for inhibition at 0.5 µM: PARP-1, measured at the conc. of 0.5 μM, read-out: Inhibition rate (%)
T1 construct: purchased Trevigen 4690–096-K
Description: Olaparib was used as positive control. […] Then, the standard curve was drawn and the inhibition rate of each test compound was calculated.

[1] = system: breast cancer cell line MDA-MB-436; assay: MTT assay for cell growth inhibition; type: cell-based; conditions: Homo sapiens, read-out: EC50 (μM) MDA-MB-436 cell inhibitory activity
Description: The anti-proliferative activities of synthesized compounds were assessed against breast cancer cell line MDA-MB-436 by the 3-(4, 5-Dimethylthiazol-2-yl)-2,5-diphenyltetrazolium bromide (MTT) assay. The MDA-MB-436 cell was purchased from Chinese Academy of Sciences. […]. After treated with compounds for 72 h, cells were incubated with 20 μL of 5 mg/mL MTT for 4 h. The culture medium was removed, and 150 μL DMSO was added to dissolve the formazan crystals. Wells containing only media were used for background correction. The optical density was measured spectrophotometrically at 490 nm. EC50 values were calculated using GraphPad Prism 6 software. Data were expressed as mean ± SEM.

[2] = biological target: T2, AChE from electric eel (EeAChE) (Electrophorus electricus, UniProt O42275); assay: biochemical
T2 construct: purchased Sigma-Aldrich
Description: (§1) The test compounds were dissolved in a minimum volume of DMSO (1%) and were diluted using sodium phosphate buffer (0.1 M, pH 7.4). A reaction mixture containing 20 μL sodium phosphate buffer, 100 μL DTMB (1 mM) and 40 μL AChE (0.2 U/Ml)/BChE (0.3 U/mL) was incubated with 20 μL of various concentrations of test compounds at 37 °C for 15 min followed by the addition of the substrate (20 μL) acetylthiocholine iodide (1 mM) or S-butyrylthiocholine iodide (1 mM) and incubation for another 3 min. […] The inhibition per cent was calculated by the following expression: (1-Ai/Ac) × 100, where Ai and Ac were the absorbance obtained for AChE/BChE in the presence and absence of inhibitors, respectively. […]

[3] = biological target: T3, BChE from equine serum (eqBChE) (Equus caballus, UniProt P81908); assay: biochemical
T3 construct: butyrylcholinesterase (eqBChE, from equine serum); purchased Sigma-Aldrich; host or cells: equine serum
Description: as §1

[4] = MDA-MB-436, MTT, incubated for 72 h, mean ± SD, n=3, concentration required to reduce cell proliferation by 50%
[5] = AChE from electric eel, mean ± SD, n=3, read-out: IC50 (μM) AChE
[6] = BChE from equine serum, mean ± SD, n=3, read-out: IC50 (μM) BChE

T1 sequence (P09874 whole entry): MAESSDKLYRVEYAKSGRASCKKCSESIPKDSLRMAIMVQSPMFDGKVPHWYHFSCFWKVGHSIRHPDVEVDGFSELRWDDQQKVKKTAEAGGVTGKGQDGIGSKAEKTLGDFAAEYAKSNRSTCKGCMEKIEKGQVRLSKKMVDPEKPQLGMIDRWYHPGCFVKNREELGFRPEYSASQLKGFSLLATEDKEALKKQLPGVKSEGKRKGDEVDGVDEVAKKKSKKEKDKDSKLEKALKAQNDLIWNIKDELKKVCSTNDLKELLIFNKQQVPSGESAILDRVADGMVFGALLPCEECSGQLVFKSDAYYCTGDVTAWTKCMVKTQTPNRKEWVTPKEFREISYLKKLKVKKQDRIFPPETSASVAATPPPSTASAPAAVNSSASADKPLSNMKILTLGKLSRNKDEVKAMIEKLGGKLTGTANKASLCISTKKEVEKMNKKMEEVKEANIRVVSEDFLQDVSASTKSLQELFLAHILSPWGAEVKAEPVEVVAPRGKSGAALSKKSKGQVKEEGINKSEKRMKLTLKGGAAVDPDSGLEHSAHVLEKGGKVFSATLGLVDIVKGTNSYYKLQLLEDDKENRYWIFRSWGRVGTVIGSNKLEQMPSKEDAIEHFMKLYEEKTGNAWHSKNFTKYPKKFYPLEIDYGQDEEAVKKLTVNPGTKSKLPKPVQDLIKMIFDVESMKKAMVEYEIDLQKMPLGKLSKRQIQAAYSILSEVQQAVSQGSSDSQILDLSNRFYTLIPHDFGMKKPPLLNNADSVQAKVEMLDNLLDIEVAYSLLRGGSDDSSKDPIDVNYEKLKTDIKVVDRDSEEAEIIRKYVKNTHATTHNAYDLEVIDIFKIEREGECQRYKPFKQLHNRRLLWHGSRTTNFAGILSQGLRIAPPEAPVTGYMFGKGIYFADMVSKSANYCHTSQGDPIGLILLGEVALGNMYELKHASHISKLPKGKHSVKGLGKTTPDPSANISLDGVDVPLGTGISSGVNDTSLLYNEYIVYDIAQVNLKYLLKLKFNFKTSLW
T2 sequence (O42275 24-633): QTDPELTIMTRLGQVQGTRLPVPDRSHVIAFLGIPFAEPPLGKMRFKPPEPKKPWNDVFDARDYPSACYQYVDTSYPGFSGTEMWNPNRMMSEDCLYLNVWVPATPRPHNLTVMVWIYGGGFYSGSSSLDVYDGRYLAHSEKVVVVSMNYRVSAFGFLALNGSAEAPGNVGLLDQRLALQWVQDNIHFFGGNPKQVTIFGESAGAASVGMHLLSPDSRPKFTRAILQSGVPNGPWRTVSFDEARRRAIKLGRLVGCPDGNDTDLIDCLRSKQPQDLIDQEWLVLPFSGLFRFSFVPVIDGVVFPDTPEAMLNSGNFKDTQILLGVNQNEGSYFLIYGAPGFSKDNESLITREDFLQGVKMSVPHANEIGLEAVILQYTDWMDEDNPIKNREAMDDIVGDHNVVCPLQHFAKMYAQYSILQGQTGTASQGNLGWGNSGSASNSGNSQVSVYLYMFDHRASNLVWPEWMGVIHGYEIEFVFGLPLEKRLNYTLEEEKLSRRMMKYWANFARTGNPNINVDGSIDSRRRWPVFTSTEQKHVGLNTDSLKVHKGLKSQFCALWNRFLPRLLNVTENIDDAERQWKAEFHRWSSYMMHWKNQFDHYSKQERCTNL
T3 sequence (P81908 whole entry): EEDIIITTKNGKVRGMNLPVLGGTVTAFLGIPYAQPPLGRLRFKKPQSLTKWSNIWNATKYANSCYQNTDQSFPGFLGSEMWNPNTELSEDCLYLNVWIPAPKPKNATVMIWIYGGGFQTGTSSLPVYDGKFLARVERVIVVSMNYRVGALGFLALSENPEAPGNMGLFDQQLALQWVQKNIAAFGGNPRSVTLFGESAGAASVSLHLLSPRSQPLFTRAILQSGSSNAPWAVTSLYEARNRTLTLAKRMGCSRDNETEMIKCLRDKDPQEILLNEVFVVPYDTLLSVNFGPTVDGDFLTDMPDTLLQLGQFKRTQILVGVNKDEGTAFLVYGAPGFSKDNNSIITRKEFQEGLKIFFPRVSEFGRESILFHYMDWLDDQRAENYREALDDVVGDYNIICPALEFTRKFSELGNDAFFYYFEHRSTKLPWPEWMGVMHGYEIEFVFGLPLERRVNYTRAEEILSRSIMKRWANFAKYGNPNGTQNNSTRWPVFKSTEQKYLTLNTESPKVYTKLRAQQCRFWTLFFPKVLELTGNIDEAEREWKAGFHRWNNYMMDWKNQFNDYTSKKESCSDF

O=C(/C=C/c1ccccc1)N1CCN(C(=O)c2cc(Cc3n[nH]c(=O)c4ccccc34)ccc2F)CC1 [5a, (E)-4-{[3-[4-(3-phenylacryloyl)piperazine-1-carbonyl]-4-fluorophenyl]methyl}-2H-phthalazin-1-one]
inhibition at 0.5 µM (PARP-1 enzyme): 75.2 ± 4.84% | EC50 [1, 4]: 38.2 ± 2.15 µM | IC50 [2, 5]: 52.9 ± 3.02 µM | IC50 [3, 6]: 22.4 ± 1.19 µM

COc1ccc(/C=C/C(=O)N2CCN(C(=O)c3cc(Cc4n[nH]c(=O)c5ccccc45)ccc3F)CC2)cc1OC [5b, (E)-4-{[3-[4–(3-(3,4-dimethoxyphenyl)acryloyl)piperazine-1-carbonyl]-4-fluorophenyl]methyl}-2H-phthalazin-1-one]
inhibition at 0.5 µM (PARP-1 enzyme): 77.2 ± 3.89% | EC50 [1, 4]: 41.2 ± 1.95 µM | IC50 [2, 5]: 45.2 ± 1.38 µM | IC50 [3, 6]: 17.8 ± 0.72 µM

COc1ccc(/C=C/C(=O)N2CCN(C(=O)c3cc(Cc4n[nH]c(=O)c5ccccc45)ccc3F)CC2)cc1 [5c, (E)-4-{[3-[4–(3-(4-methoxyphenyl)acryloyl)piperazine-1-carbonyl]-4-fluorophenyl]methyl} -2H-phthalazin-1-one]
inhibition at 0.5 µM (PARP-1 enzyme): 89.2 ± 10.6% | IC50 (PARP-1 enzyme): 144 ± 5.26 nM | EC50 [1, 4]: 14.2 ± 3.16 µM | IC50 [2, 5]: 55.8 ± 0.6 µM | IC50 [3, 6]: 179 ± 5.89 µM

Cc1ccc(/C=C/C(=O)N2CCN(C(=O)c3cc(Cc4n[nH]c(=O)c5ccccc45)ccc3F)CC2)cc1 [5d, (E)-4-{[3-[4-(3-(4-methylphenyl)acryloyl)piperazine-1-carbonyl]-4-fluorophenyl]methyl} -2H-phthalazin-1-one]
inhibition at 0.5 µM (PARP-1 enzyme): 64.2 ± 4.59% | EC50 [1, 4]: 35.1 ± 3.42 µM | IC50 [2, 5]: 72 ± 3.84 µM | IC50 [3, 6]: 27.8 ± 0.87 µM

COc1ccccc1/C=C/C(=O)N1CCN(C(=O)c2cc(Cc3n[nH]c(=O)c4ccccc34)ccc2F)CC1 [5e, (E)-4-{[3-[4-(3-(2-methoxyphenyl)acryloyl)piperazine-1-carbonyl]-4-fluorophenyl]methyl}-2H-phthalazin-1-one]
inhibition at 0.5 µM (PARP-1 enzyme): 62.6 ± 3.65% | EC50 [1, 4]: 44.2 ± 1.95 µM | IC50 [2, 5]: 56.9 ± 4.3 µM | IC50 [3, 6]: 26.4 ± 1.93 µM

COc1ccc(OC)c(/C=C/C(=O)N2CCN(C(=O)c3cc(Cc4n[nH]c(=O)c5ccccc45)ccc3F)CC2)c1 [5f, (E)-4-{[3-[4–(3-(2,5-dimethoxyphenyl)acryloyl)piperazine-1-carbonyl]-4-fluorophenyl]methyl} -2H-phthalazin-1-one]
inhibition at 0.5 µM (PARP-1 enzyme): 75.6 ± 3.61% | EC50 [1, 4]: 30.2 ± 3.25 µM | IC50 [2, 5]: 76.9 ± 4.13 µM | IC50 [3, 6]: 35.7 ± 2.98 µM

O=C(/C=C/c1ccc(F)cc1)N1CCN(C(=O)c2cc(Cc3n[nH]c(=O)c4ccccc34)ccc2F)CC1 [5g, (E)-4-{[3-[4–(3-(4-fluorophenyl)acryloyl)piperazine-1-carbonyl]-4-fluorophenyl]methyl} -2H -phthalazin-1-one]
inhibition at 0.5 µM (PARP-1 enzyme): 85.6 ± 3.69% | IC50 (PARP-1 enzyme): 397 ± 7.01 nM | EC50 [1, 4]: 13 ± 2.14 µM | IC50 [2, 5]: 173 ± 30 µM | IC50 [3, 6]: 105 ± 12.5 µM

O=C(/C=C/c1ccc(C(F)(F)F)cc1)N1CCN(C(=O)c2cc(Cc3n[nH]c(=O)c4ccccc34)ccc2F)CC1 [5h, (E)-4-{[3-[4–(3-(4-trifluoromethylphenyl)acryloyl)piperazine-1-carbonyl]-4-fluorophenyl]methyl} -2H -phthalazin-1-one]
inhibition at 0.5 µM (PARP-1 enzyme): 89.5 ± 12.6% | IC50 (PARP-1 enzyme): 295 ± 8.25 nM | EC50 [1, 4]: 14.8 ± 1.42 µM | IC50 [2, 5]: 136 ± 12.5 µM | IC50 [3, 6]: 56.8 ± 4.36 µM

O=C(/C=C/c1cccc(F)c1)N1CCN(C(=O)c2cc(Cc3n[nH]c(=O)c4ccccc34)ccc2F)CC1 [5i, (E)-4-{[3-[4–(3-(3-fluorophenyl)acryloyl)piperazine-1-carbonyl]-4-fluorophenyl]methyl} -2H -phthalazin-1-one]
inhibition at 0.5 µM (PARP-1 enzyme): 88.2 ± 5.24% | IC50 (PARP-1 enzyme): 267 ± 9.32 nM | EC50 [1, 4]: 14.2 ± 5.21 µM | IC50 [2, 5]: 110 ± 9.18 µM | IC50 [3, 6]: 33.4 ± 4.14 µM

O=C(/C=C/c1ccc(Cl)cc1)N1CCN(C(=O)c2cc(Cc3n[nH]c(=O)c4ccccc34)ccc2F)CC1 [5j, (E)-4-{[3-[4–(3-(4-chlorophenyl)acryloyl)piperazine-1-carbonyl]-4-fluorophenyl]methyl} -2H -phthalazin-1-one]
inhibition at 0.5 µM (PARP-1 enzyme): 75.5 ± 4.54% | EC50 [1, 4]: 45.2 ± 1.68 µM | IC50 [2, 5]: 86.5 ± 5.12 µM | IC50 [3, 6]: 37.1 ± 2.37 µM

O=C(/C=C/c1ccc(Br)cc1)N1CCN(C(=O)c2cc(Cc3n[nH]c(=O)c4ccccc34)ccc2F)CC1 [5k, (E)-4-{[3-[4–(3-(4-bromophenyl)acryloyl)piperazine-1-carbonyl]-4-fluorophenyl]methyl} -2H -phthalazin-1-one]
inhibition at 0.5 µM (PARP-1 enzyme): 43.2 ± 6.54% | EC50 [1, 4]: 112 ± 5.24 µM | IC50 [2, 5]: 80.7 ± 4.87 µM | IC50 [3, 6]: 45.8 ± 3.76 µM

O=C(/C=C/c1cccc([N+](=O)[O-])c1)N1CCN(C(=O)c2cc(Cc3n[nH]c(=O)c4ccccc34)ccc2F)CC1 [5l, (E)-4-{[3-[4–(3-(3-nitrophenyl)acryloyl)piperazine-1-carbonyl]-4-fluorophenyl]methyl} -2H -phthalazin-1-one]
inhibition at 0.5 µM (PARP-1 enzyme): 95.7 ± 4.35% | IC50 (PARP-1 enzyme): 16.1 ± 1.25 nM | EC50 [1, 4]: 11.6 ± 2.15 µM | IC50 [2, 5]: 24.6 ± 1.1 µM | IC50 [3, 6]: 9.16 ± 0.91 µM

O=C(/C=C/c1ccc([N+](=O)[O-])cc1)N1CCN(C(=O)c2cc(Cc3n[nH]c(=O)c4ccccc34)ccc2F)CC1 [5m, (E)-4-{[3-[4–(3-(4-nitrophenyl)acryloyl)piperazine-1-carbonyl]-4-fluorophenyl]methyl} -2H -phthalazin-1-one]
inhibition at 0.5 µM (PARP-1 enzyme): 93.2 ± 5.28% | IC50 (PARP-1 enzyme): 37.9 ± 1.89 nM | EC50 [1, 4]: 14 ± 1.28 µM | IC50 [2, 5]: 12.2 ± 0.49 µM | IC50 [3, 6]: 5.93 ± 0.19 µM

COc1cc(/C=C/C(=O)N2CCN(C(=O)c3cc(Cc4n[nH]c(=O)c5ccccc45)ccc3F)CC2)cc(OC)c1OC [5n, (E)-4-{[3-[4–(3-(3,4,5-trimethoxyphenyl)acryloyl)piperazine-1-carbonyl]-4-fluorophenyl]methyl} -2H -phthalazin-1-one]
inhibition at 0.5 µM (PARP-1 enzyme): 66 ± 4.82% | EC50 [1, 4]: 31.2 ± 4.12 µM | IC50 [2, 5]: 99.1 ± 2.21 µM | IC50 [3, 6]: 65.2 ± 1.08 µM

O=C(/C=C/c1ccco1)N1CCN(C(=O)c2cc(Cc3n[nH]c(=O)c4ccccc34)ccc2F)CC1 [5o, (E)-4-{[3-[4-(3-(furan-2-yl)acryloyl)piperazine-1-carbonyl]-4-fluorophenyl]methyl} -2H -phthalazin-1-one]
inhibition at 0.5 µM (PARP-1 enzyme): 65.2 ± 5.98% | EC50 [1, 4]: 32.2 ± 3.58 µM | IC50 [2, 5]: 114 ± 14.9 µM | IC50 [3, 6]: 77.6 ± 9.06 µM

CN(C)C(=O)Oc1cccc([N+](C)(C)C)c1 [Neostigmine, reference compound]
IC50 [2]: 0.04 ± 0.01 µM | IC50 [3]: 12 ± 0.45 µM

O=C(c1cc(Cc2n[nH]c(=O)c3ccccc23)ccc1F)N1CCN(C(=O)C2CC2)CC1 [Olaparib]
EC50 ([1]; MDA-MB-436, 72 h): 8.63 ± 1.25 µM | IC50 [2, 5]: 50.95 ± 0.46 µM | IC50 [3, 6]: 34.4 ± 0.64 µM
